How the values were obtained:
U87MG cells = assay: CellTiter-Glo luminescent cell viability assay, cytotoxic effects on glioblastoma cell line; assay type: cell-based; conditions: Homo sapiens, U-87 MG, 168 h; U87MG (TMZ sensitive) cells, Day 7, doses 0-10000 μM
Experimental: Testing of the cytotoxic effects of polyMPC-TMZ on glioblastoma (GBM) cell lines utilized U87MG (TMZ sensitive cell line) and T98G (TMZ-resistant cell line). […] U87MG cells were plated on 96 well plates and cultured overnight in DMEM media containing 10% FBS at 37° C. in a CO2 incubator. The cells were treated with different doses of TMZ (0-10000 μM), polyMPC-TMZ-17% (random copolymer with 17 mole percent TMZ monomer) (0-10000 μM), polyMPC-TMZ-26% (random copolymer with 26% TMZ monomer) (0-10000 μM), polyMPC-TMZ-33% (random copolymer with 33% TMZ monomer) (0-10000 μM) or polyMPC-TMZ-50% random copolymer with 50 mole percent TMZ monomer) (0-10000 μM) and cell viability was tested on Day 7 using the CellTiter-Glo luminescent cell viability assay purchased from Promega, Inc. PolyMPC itself was used as a control polymer. […] All of the polyMPC-TMZ conjugates were efficacious, with a modified toxicity response as is typical of polymer prodrugs which mask the toxicity of the drug prior to making them available to the tumor. […] The higher IC50 values of polyMPC-TMZ will allow for introduction of larger drug doses in in vivo experiments.

[1] = Stability of TMZ in organic solvents by UV-Vis spectroscopy; assay type: physicochemical; conditions: 0.01 mg/ml in 1:1 MeOH:DMSO
Experimental: This observation prompted investigation of the stability of TMZ in organic solvents, a property not previously reported to our knowledge. Solutions of TMZ (0.01 milligram per milliliter concentration) in 1:1 MeOH:DMSO, DMSO, ACN, and 2,2,2-trifluoroethanol (TFE) were incubated at room temperature, as well as elevated temperatures (e.g., 50° C. and 70° C.). […] The marked difference in stability of TMZ observed between MeOH and TFE was attributed to the poor nucleophilicity of the latter, which precludes rapid imidazotetrazine solvolysis.

Cn1nnc2c(C(N)=O)ncn2c1=O [TMZ, Temozolomide]
IC50 (U87MG cells): ~192 µM
degradation in MeOH:DMSO mixture, heated ([1]; 50° C. or 70° C., after 1 hour): fully degraded
degradation in MeOH:DMSO mixture, room temperature ([1]; room temperature): significant degradation
